The test deals with normal human fibroblasts. Put plainly: Dermo-decontracting effect on dermal equivalent model (collagen matrix inoculated with fibroblasts), spontaneous contraction. As to conditions: for % contraction: test compound 10 μM, dermal equivalent surface area at 0, 4, 8 and 24 hours, with respect to the control. Type of test: cell-based. The source says:
The principle of this test consists in studying the effect of the test product on a dermal equivalent model composed of a collagen matrix inoculated with normal human fibroblasts.
These conditions are intended to mimic in vitro the dermal contractile phenomena which occur during facial expressions. This is because, under these conditions, the cells spontaneously express tensile forces which induce retraction of the collagen gel. […] The measurement of this surface area makes it possible to evaluate the relaxing effects of the substances brought into contact beforehand with the dermal equivalent.
Two series of attached dermal equivalents comprising normal human fibroblasts are prepared: a control series without any treatment and a series treated with the test compound (10 μM). The experiment is repeated three times.
The dermal equivalents are prepared as described in Asselineau et al., Exp. Cell. Res., 1985, 159, 536-539; Models in Dermatology, 1987, vol. 3, pp. 1-7, in the following proportions:
The treated dermal equivalent differs from the control dermal equivalent in that 10 μM of the test compound are added thereto.
The collagen used is type I collagen (commercial solution). It is extracted from calf skin by acid hydrolysis and stored in an acidic medium at +4° C. It polymerizes naturally by reheating to 37° C. and by decreasing the degree of acidity. The collagen is dialysed beforehand against successive baths of water+acetic acid.
The protocol is as follows: the 1.76×MEM medium is introduced, in the presence of additives (1% glutamine, 1% non-essential amino acids, 1% sodium pyruvate, 1% fungizone and 1% penicillin/streptomycin), the foetal calf serum and the 0.1N NaOH solution, into a 50 ml centrifuge tube stored in crushed ice. The fibroblasts, isolated from human skin explants, are then added at the concentration of 1.5×10^5 cells per 1 ml of culture medium.
A volume/volume mixture of collagen in acetic acid at 1/1000 is then slowly added, against the wall of the tube, so as to observe the appearance of a whitish cloud.
The combined product is then carefully mixed and distributed in the wells of a 12-well culture plate (Costar type, reference 3512) in a proportion of 2 ml of mixture per well. The final cell concentration is […], with a final concentration of collagen of 1 mg/ml. The culture plate is then placed in an incubator at 37° C. with 5% CO2.
Once formed after polymerization of the collagen, the dermal equivalents are left adhered to the culture support for 3 days and then detached from the support so that the contraction can begin. These detached dermal equivalents are taken out of the incubator in order to take images for the purpose of measuring their surface area, this being for each point of the kinetics of contraction (0, 4, 8 and 24 hours). They are immediately placed back in the incubator between each measurement point.
The evaluation of the spontaneous contraction of the treated (with the test compound) and control (without test compound) dermal equivalents is carried out by measuring their surface area at the different times mentioned after the beginning of the spontaneous contraction.
For this, a digital image is acquired for each treated or untreated dermal equivalent by means of a camera (CCD camera-Iris Sony DXC-107P) and the surface area is subsequently calculated on each image by means of an image analysis system (Zeiss Axiovision 3.0). […]

Consider 4 molecules from patent US20070237734A1, “ANTI-WRINKLE COSMETIC COMPOSITION” (L'OREAL, priority 2006, published 2007).

Regarding `CCOC[C@H]1O[C@@H](n2cnc3c(N)ncnc32)[C@@H]2OC(C)(C)O[C@@H]21` [Compound D, 2′,3′-isopropylidene-5′-ethyladenosine], the “% contraction” value is on record as −21%.

Take `CC(=O)OC[C@H]1O[C@@H](n2cnc3c(N)ncnc32)[C@@H]2OC(C)(C)O[C@@H]21` [Compound G, 2′,3′-isopropylidene-5′-acetyladenosine]: the “% contraction” value was −30%. Consider `Nc1ncnc2c1ncn2[C@@H]1O[C@H](CO)[C@@H](O)[C@H]1O` [Adenosine, reference compound], for which the “% contraction” value is −15%. Besides, the “reduce the contraction of the fibroblasts, on average over the duration of the experiment, with respect to the control” value (tested at 10 μM) came out at 15%. Consider `CCCCCCCCOC[C@H]1O[C@@H](n2cnc3c(N)ncnc32)[C@@H]2OC(C)(C)O[C@@H]21` [Compound E, 2′,3′-isopropylidene-5′-octyladenosine], for which the “% contraction” value is recorded as −26%.
